21 compounds from EP0846114B1, “3-PYRIDYLOXYALKYL HETEROCYCLIC ETHER COMPOUNDS USEFUL IN CONTROLLING CHEMICAL SYNAPTIC TRANSMISSION” (priority 1995, dated 1996) can be followed below.

For assay [1], the target named is T1, neuronal nicotinic cholinergic channel receptors (Rattus norvegicus, UniProt P09483+P12390).
T1 construct: crude synaptic membrane preparations from whole rat brain; from tissue; host or cells: whole rat brain, crude synaptic membranes
Briefly: [3H]-cytisine radioligand displacement binding (Protocol A). The procedure:
Binding of [^3H]-cytisine ([^3H]-CYT) to nicotinic receptors was accomplished using crude synaptic membrane preparations from whole rat brain (Pabreza et al., Molecular Pharmacol., 1990, 39:9). Washed membranes were stored at -80°C prior to use. Frozen aliquots were slowly thawed and resuspended in 20 volumes of buffer (containing: 120 mM NaCl, 5 mM KCl, 2 mM MgCl2, 2 mM CaCl2 and 50 mM Tris-Cl, pH 7.4 @4°C). After centrifuging at 20,000x g for 15 minutes, the pellets were resuspended in 30 volumes of buffer. Homogenate (containing 125-150 µg protein) was added to triplicate tubes containing concentrations of test compound and [^3H]-CYT (1.25 nM) in a final volume of 500 µL. Samples were incubated for 60 minutes at 4°C, then rapidly filtered through Whatman GF/B filters presoaked in 0.5% polyethyleneimine using 3 x 4 mL of ice-cold buffer. The filters are counted in 4 mL of Ecolume® (ICN). […] Alternately, data were expressed as a percentage of the total specific binding.

Assay [2] deals with Neuronal Nicotinic Cholinergic Channels in IMR-32 Cells. The assay is described as follows: 86Rb+ efflux in IMR-32 cells (Protocol B). As to conditions: for IMR-32 maximal response: percent relative to the response elicited by 100 µM (S)-nicotine; for EC50: read-out: IMR-32 EC50, activation of 86Rb+ efflux, IMR-32 human neuroblastoma cells.
Protocol: For the purpose of directly evaluating the ability of test compounds to functionally activate or inhibit certain subtypes of neuronal nicotinic cholinergic channels, an assay to determine ^86Rb^+ efflux in IMR-32 cells was employed (Protocol B below).
Experimental cells were seeded at a density of 500,000 cells/mL into a 24-well tissue culture dish. Plated cells were allowed to proliferate for at least 48 hours before loading with 2 µCi/mL of ^86Rb^+ (35 Ci/mmol) overnight at 37°C.
[3] abbreviates: displacement of [3H]-CYT (1.25 nM), crude synaptic membranes from whole rat brain, IC50 converted to Ki (Cheng and Prusoff), read-out: Binding.
The mark [4] stands for this setting: inhibition of the efflux elicited by 100 µM (S)-nicotine, single dose 1 µM.
Setting [5] is: inhibition of the efflux elicited by 100 µM (S)-nicotine, single dose 10 µM.

Counter-ions that a name gives are not always drawn. Like-named read-outs stand apart in the source and are kept apart here.

T1 sequence (P09483 31-630): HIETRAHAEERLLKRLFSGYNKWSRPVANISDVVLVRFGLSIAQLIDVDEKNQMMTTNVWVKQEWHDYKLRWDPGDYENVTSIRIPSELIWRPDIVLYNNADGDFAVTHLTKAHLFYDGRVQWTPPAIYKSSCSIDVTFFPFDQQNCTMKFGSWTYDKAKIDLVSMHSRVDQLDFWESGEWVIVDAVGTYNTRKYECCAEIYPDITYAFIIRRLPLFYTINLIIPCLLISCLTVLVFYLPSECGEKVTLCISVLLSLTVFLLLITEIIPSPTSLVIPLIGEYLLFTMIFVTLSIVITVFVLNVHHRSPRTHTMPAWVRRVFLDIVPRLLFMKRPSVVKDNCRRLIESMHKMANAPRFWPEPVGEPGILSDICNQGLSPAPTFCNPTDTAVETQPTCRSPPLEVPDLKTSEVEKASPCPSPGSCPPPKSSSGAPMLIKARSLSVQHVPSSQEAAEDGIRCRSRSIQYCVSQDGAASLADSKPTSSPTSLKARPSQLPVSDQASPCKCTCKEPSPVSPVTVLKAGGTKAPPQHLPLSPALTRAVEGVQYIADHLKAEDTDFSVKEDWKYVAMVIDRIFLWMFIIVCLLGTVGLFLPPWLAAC
T1 sequence (P12390 25-500): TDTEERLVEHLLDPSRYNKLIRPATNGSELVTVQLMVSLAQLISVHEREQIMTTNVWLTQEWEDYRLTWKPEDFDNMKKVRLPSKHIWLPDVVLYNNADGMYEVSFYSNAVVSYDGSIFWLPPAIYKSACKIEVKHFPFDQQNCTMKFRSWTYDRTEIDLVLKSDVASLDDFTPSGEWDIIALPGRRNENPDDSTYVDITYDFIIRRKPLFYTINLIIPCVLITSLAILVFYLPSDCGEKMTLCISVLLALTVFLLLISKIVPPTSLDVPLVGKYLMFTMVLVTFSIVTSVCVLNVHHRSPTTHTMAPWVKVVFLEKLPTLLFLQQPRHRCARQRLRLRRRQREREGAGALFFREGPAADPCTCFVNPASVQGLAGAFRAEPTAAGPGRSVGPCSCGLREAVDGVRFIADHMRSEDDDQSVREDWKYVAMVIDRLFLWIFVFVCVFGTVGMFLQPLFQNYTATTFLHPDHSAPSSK

With `CCc1cc(OC[C@@H]2CCCN2)cnc1Cl.Cl` [Example 46, 5-Ethyl-6-chloro-3-(2-(S)-pyrrolidinylmethoxy)pyridine hydrochloride], in assay [1] (setting [3]), the Ki turned out to be 0.6 nM. Moreover, in assay [2], the IMR-32 maximal response is given as 11%.
In the case of `CN1CCC[C@H]1COc1cnc(Cl)c(Cl)c1.Cl` [Example 12, 5,6-Dichloro-3-(1-methyl-2-(S)-pyrrolidinylmethoxy)pyridine hydrochloride], the Ki in assay [1] (setting [3]) amounted to 0.11 nM. In assay [2], the “% Inhibition @ 1 µM” value was determined as 5%, the “% Inhibition @ 10 µM” value was determined as 8% and the IMR-32 maximal response is 16%.
Regarding `Cc1ncc(OC[C@@H]2CCN2)cc1Br.Cl` [Example 52, 5-bromo-6-methyl-3-(2-(S)-azetidinylmethoxy)pyridine hydrochloride], in assay [2], the IMR-32 maximal response was 124% and the EC50 was determined as 1600 nM.
For the compound `Cl.Clc1cc(OC[C@@H]2CCCN2)cnc1Cl` [Example 11, 5,6-Dichloro-3-(2-(S)-pyrrolidinylmethoxy)pyridine hydrochloride], the Ki in assay [1] (setting [3]) was 0.029 nM. Besides, in assay [2], the IMR-32 maximal response is recorded as 93% and the EC50 amounted to 600 nM.
In assay [1], `CN1CCC[C@@H]1COc1cnc(Cl)c(Br)c1.Cl` [Example 8, 5-bromo-6-chloro-3-(1-methyl-2-(R)-pyrrolidinylmethoxy)pyridine hydrochloride] displayed a Ki of 13 nM. Also, the “% Inhibition @ 1 µM” value in assay [2] (setting [4]) came to 28%. In assay [2] (setting [5]), the “% Inhibition @ 10 µM” value was determined as 60%. The IMR-32 maximal response in assay [2] worked out at 10.6%.
As to `CCc1cc(OC[C@H]2CCCN2)cnc1Cl.Cl` [Example 48, 5-Ethyl-6-chloro-3-(2-(R)-pyrrolidinylmethoxy)pyridine hydrochloride], in assay [1] (setting [3]), the Ki stood at 0.027 nM. Besides, in assay [2], the IMR-32 maximal response turned out to be 129% and the EC50 turned out to be 56000 nM.
For “5-Ethyl-6-chloro-3-(1-methyl-2-(S)-pyrrolidinylmethoxy)pyridine hydrochloride [Example 47]”, the Ki in assay [1] (setting [3]) is 0.065 nM. Moreover, in assay [2], the IMR-32 maximal response was 152% and the EC50 is 22000 nM.
As to `CN1CC[C@H]1COc1cnc(Cl)c(Cl)c1.Cl` [Example 16, 5,6-dichloro-3-(1-methyl-2-(S)-azetidinylmethoxy)pyridine hydrochloride], the Ki in assay [1] (setting [3]) came to 0.7 nM. For the same compound, in assay [2], the “% Inhibition @ 1 µM” value was 35%, the IMR-32 maximal response was found to be 37% and the concentration giving a half-maximal response (EC50) was determined as 500 nM.
As for `CN1CC[C@H]1COc1cnc(Cl)c(C#N)c1.Cl` [Example 50, 5-Cyano-6-chloro-3-(1-methyl-2-(S)-azetidinylmethoxy)pyridine hydrochloride], the Ki in assay [1] (setting [3]) worked out at 0.88 nM. Further, in assay [2], the IMR-32 maximal response worked out at 35% and the EC50 turned out to be 10000 nM.
As to `Cl.Clc1ncc(OC[C@@H]2CCN2)cc1Br` [Example 2, 5-Bromo-6-chloro-3-(2-(S)-azetidinylmethoxy)pyridine hydrochloride], in assay [2], the IMR-32 maximal response turned out to be 120% and the EC50 amounted to 100 nM.
`Cl.Clc1cc(OC[C@H]2CCN2)cnc1Cl` [Example 17, 5,6-dichloro-3-(2-(R)-azetidinylmethoxy)pyridine hydrochloride] displayed a Ki in assay [1] of 0.06 nM. For the same compound, in assay [2], the IMR-32 maximal response is on record as 108% and the EC50 was determined as 200 nM.
As to `Cl.Clc1cc(OC[C@H]2CCCN2)cnc1Cl` [Example 9, 5,6-Dichloro-3-(2-(R)-pyrrolidinylmethoxy)pyridine hydrochloride], in assay [1] (setting [3]), the Ki turned out to be 0.03 nM. For the same compound, in assay [2], the IMR-32 maximal response is reported as 67% and the EC50 is 1600 nM.
`CN1CCC[C@H]1COc1cnc(Cl)c(Br)c1.Cl.Cl` [Example 5, 5-Bromo-6-chloro-3-(1-methyl-2-(S)-pyrrolidinylmethoxy)pyridine dihydrochloride] returned a Ki in assay [1] of 0.35 nM. Also, the “% Inhibition @ 1 µM” value in assay [2] (setting [4]) is listed as 12%. Besides, the “% Inhibition @ 10 µM” value in assay [2] (setting [5]) was 22%. Further, in assay [2], the IMR-32 maximal response is on record as 12%.
For `Cl.N#Cc1cc(OC[C@@H]2CCN2)cnc1Cl` [Example 49, 5-Cyano-6-chloro-3-(2-(S)-azetidinylmethoxy)pyridine hydrochloride], in assay [1] (setting [3]), the Ki amounted to 0.097 nM. Also, in assay [2], the IMR-32 maximal response is 158% and the 50% effective concentration (EC50) came to 290 nM.
As for `CN1CC[C@H]1COc1cnc(Cl)c(Br)c1.Cl` [Example 3, 5-Bromo-6-chloro-3-(1-methyl-2-(S)-azetidinylmethoxy)pyridine hydrochloride], in assay [1] (setting [3]), the Ki worked out at 0.38 nM. Besides, the “% Inhibition @ 1 µM” value in assay [2] came to 55%.
Consider `CCc1cc(OC[C@@H]2CCN2)cnc1Cl.Cl` [Example 45, 5-Ethyl-6-chloro-3-(2-(S)-azetidinylmethoxy)pyridine hydrochloride], for which the Ki in assay [1] amounted to 0.04 nM. In addition, in assay [2], the IMR-32 maximal response worked out at 137% and the EC50 was 400 nM.
For `CN1CCC[C@@H]1COc1cnc(Cl)c(Cl)c1.Cl` [Example 10, 5,6-Dichloro-3-(1-methyl-2-(R)-pyrrolidinylmethoxy)pyridine hydrochloride], the Ki in assay [1] (setting [3]) was determined as 20 nM. In addition, in assay [2], the “% Inhibition @ 1 µM” value came out at 18%, the “% Inhibition @ 10 µM” value is 90% and the IMR-32 maximal response was determined as 3.3%.
On to `Cl.Cl.Clc1ncc(OC[C@H]2CCCN2)cc1Br` [Example 7, 5-bromo-6-chloro-3-(2-(R)-pyrrolidinylmethoxy)pyridine dihydrochloride], for which the Ki in assay [1] came to 0.099 nM. In addition, in assay [2], the IMR-32 maximal response came to 70% and the EC50 was 4900 nM.
With `NC(=O)c1cc(OC[C@@H]2CCN2)cnc1Cl` [Example 51, hydrochloride], the Ki in assay [1] (setting [3]) came to 0.19 nM. For the same compound, in assay [2], the IMR-32 maximal response turned out to be 64% and the EC50 amounted to 16000 nM.
As to `CN1CC[C@@H]1COc1cnc(Cl)c(Cl)c1.Cl` [Example 18, 5,6-dichloro-3-(1-methyl-2-(R)-azetidinylmethoxy)pyridine hydrochloride], the Ki in assay [1] (setting [3]) came to 2.4 nM. Also, in assay [2], the “% Inhibition @ 1 µM” value stood at 0%, the “% Inhibition @ 10 µM” value was determined as 18% and the IMR-32 maximal response is 22.5%.
On to `Cl.Clc1cc(OC[C@@H]2CCN2)cnc1Cl` [Example 15, 5,6-dichloro-3-(2-(S)-azetidinylmethoxy)pyridine hydrochloride], for which, in assay [2], the IMR-32 maximal response turned out to be 152% and the EC50 was 300 nM.
